According to PubChem BioAssay (NCI):
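Exposure lasted 48 hours, with cells grown in 96-well plates and compounds tested at five concentrations. TGI denotes the concentration required for complete inhibition of growth.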

Key:
Experiment in all cases: NCI anticancer screen, dose series, 48 h
DMS 273 small cell lung = test system: DMS 273 small cell lung
MOLT-4 leukemia = test system: MOLT-4 leukemia
SF-295 CNS = test system: SF-295 CNS
OVCAR-4 ovarian = test system: OVCAR-4 ovarian
HOP-62 NSCLC = test system: HOP-62 NSCLC
KM12 colon = test system: KM12 colon
OVCAR-5 ovarian = test system: OVCAR-5 ovarian
786-0 renal = test system: 786-0 renal
NCI-H460 lung = test system: NCI-H460 lung
UO-31 renal = test system: UO-31 renal
HCC-2998 colon = test system: HCC-2998 colon
SK-MEL-2 melanoma = test system: SK-MEL-2 melanoma
HCT-116 colon = test system: HCT-116 colon
MALME-3M melanoma = test system: MALME-3M melanoma
NCI-H23 lung = test system: NCI-H23 lung
RPMI-8226 leukemia = test system: RPMI-8226 leukemia
SK-OV-3 ovarian = test system: SK-OV-3 ovarian
ACHN renal = test system: ACHN renal
HT29 colon = test system: HT29 colon
SK-MEL-28 melanoma = test system: SK-MEL-28 melanoma
COLO 205 colon = test system: COLO 205 colon
UACC-257 melanoma = test system: UACC-257 melanoma
M19-MEL melanoma = test system: M19-MEL melanoma
A498 renal = test system: A498 renal
XF 498 CNS = test system: XF 498 CNS
U251 CNS = test system: U251 CNS
SF-539 CNS = test system: SF-539 CNS
CAKI-1 renal = test system: CAKI-1 renal
A549 NSCLC = test system: A549 NSCLC
TK-10 renal = test system: TK-10 renal
UACC-62 melanoma = test system: UACC-62 melanoma
NCI-H522 lung = test system: NCI-H522 lung
SF-268 CNS = test system: SF-268 CNS
KM20L2 colon = test system: KM20L2 colon
SN12C renal = test system: SN12C renal
SNB-78 CNS = test system: SNB-78 CNS
LXFL 529 NSCLC = test system: LXFL 529 NSCLC
M14 melanoma = test system: M14 melanoma
NCI-H226 lung = test system: NCI-H226 lung
DMS 114 small cell lung = test system: DMS 114 small cell lung
EKVX NSCLC = test system: EKVX NSCLC
HCT-15 colon = test system: HCT-15 colon
SNB-75 CNS = test system: SNB-75 CNS
OVCAR-8 ovarian = test system: OVCAR-8 ovarian
DLD-1 colon = test system: DLD-1 colon
OVCAR-3 ovarian = test system: OVCAR-3 ovarian
K-562 leukemia = test system: K-562 leukemia
CCRF-CEM leukemia = test system: CCRF-CEM leukemia
SNB-19 CNS = test system: SNB-19 CNS
HOP-92 NSCLC = test system: HOP-92 NSCLC
RXF 393 renal = test system: RXF 393 renal
IGROV1 ovarian = test system: IGROV1 ovarian
SW-620 colon = test system: SW-620 colon
SK-MEL-5 melanoma = test system: SK-MEL-5 melanoma
LOX IMVI melanoma = test system: LOX IMVI melanoma
SR leukemia = test system: SR leukemia

N=c1oc2c(O)c(O)ccc2cc1C(N)=O
TGI (DMS 273 small cell lung): > 100 µM | TGI (MOLT-4 leukemia): 75.2 µM | TGI (SF-295 CNS): 94.5 µM | TGI (OVCAR-4 ovarian): 31.7 µM | TGI (HOP-62 NSCLC): > 100 µM | TGI (KM12 colon): > 100 µM | TGI (OVCAR-5 ovarian): > 100 µM | TGI (786-0 renal): 25.3 µM | TGI (NCI-H460 lung): > 100 µM | TGI (UO-31 renal): > 100 µM | TGI (HCC-2998 colon): > 100 µM | TGI (SK-MEL-2 melanoma): > 100 µM | TGI (HCT-116 colon): > 100 µM | TGI (MALME-3M melanoma): > 100 µM | TGI (NCI-H23 lung): > 100 µM | TGI (RPMI-8226 leukemia): > 100 µM | TGI (SK-OV-3 ovarian): > 100 µM | TGI (ACHN renal): > 100 µM | TGI (HT29 colon): > 100 µM | TGI (SK-MEL-28 melanoma): > 100 µM | TGI (COLO 205 colon): > 100 µM | TGI (UACC-257 melanoma): > 100 µM | TGI (M19-MEL melanoma): 44.8 µM | TGI (A498 renal): > 100 µM | TGI (XF 498 CNS): 53 µM | TGI (U251 CNS): > 100 µM | TGI (SF-539 CNS): > 100 µM | TGI (CAKI-1 renal): > 100 µM | TGI (A549 NSCLC): > 100 µM | TGI (TK-10 renal): > 100 µM | TGI (UACC-62 melanoma): > 100 µM | TGI (NCI-H522 lung): > 100 µM | TGI (SF-268 CNS): > 100 µM | TGI (KM20L2 colon): > 100 µM | TGI (SN12C renal): > 100 µM | TGI (SNB-78 CNS): > 100 µM | TGI (LXFL 529 NSCLC): 93.1 µM | TGI (M14 melanoma): > 100 µM | TGI (NCI-H226 lung): > 100 µM | TGI (DMS 114 small cell lung): > 100 µM | TGI (EKVX NSCLC): > 100 µM | TGI (HCT-15 colon): > 100 µM | TGI (SNB-75 CNS): 97.6 µM | TGI (OVCAR-8 ovarian): 50.9 µM | TGI (DLD-1 colon): > 100 µM | TGI (OVCAR-3 ovarian): > 100 µM | TGI (K-562 leukemia): 36.4 µM | TGI (CCRF-CEM leukemia): 47 µM | TGI (SNB-19 CNS): > 100 µM | TGI (HOP-92 NSCLC): > 100 µM | TGI (RXF 393 renal): > 100 µM | TGI (IGROV1 ovarian): > 100 µM | TGI (SW-620 colon): 83.4 µM

O=C(Nc1ccccc1-c1nn(CO)c(=S)n(CO)c1=O)C(F)(F)F
TGI (DMS 273 small cell lung): > 100 µM | TGI (MOLT-4 leukemia): > 100 µM | TGI (SF-295 CNS): > 100 µM | TGI (OVCAR-4 ovarian): > 100 µM | TGI (HOP-62 NSCLC): > 100 µM | TGI (KM12 colon): > 100 µM | TGI (OVCAR-5 ovarian): > 100 µM | TGI (786-0 renal): > 100 µM | TGI (NCI-H460 lung): > 100 µM | TGI (UO-31 renal): > 100 µM | TGI (HCC-2998 colon): > 100 µM | TGI (SK-MEL-2 melanoma): > 100 µM | TGI (HCT-116 colon): > 100 µM | TGI (MALME-3M melanoma): > 100 µM | TGI (NCI-H23 lung): > 100 µM | TGI (SK-OV-3 ovarian): > 100 µM | TGI (ACHN renal): > 100 µM | TGI (HT29 colon): > 100 µM | TGI (SK-MEL-28 melanoma): > 100 µM | TGI (SK-MEL-5 melanoma): > 100 µM | TGI (COLO 205 colon): > 100 µM | TGI (XF 498 CNS): > 100 µM | TGI (U251 CNS): > 100 µM | TGI (SF-539 CNS): > 100 µM | TGI (CAKI-1 renal): > 100 µM | TGI (A549 NSCLC): > 100 µM | TGI (TK-10 renal): > 100 µM | TGI (UACC-62 melanoma): > 100 µM | TGI (NCI-H522 lung): > 100 µM | TGI (SF-268 CNS): > 100 µM | TGI (SN12C renal): > 100 µM | TGI (SNB-78 CNS): > 100 µM | TGI (LXFL 529 NSCLC): > 100 µM | TGI (M14 melanoma): > 100 µM | TGI (NCI-H226 lung): > 100 µM | TGI (DMS 114 small cell lung): > 100 µM | TGI (EKVX NSCLC): > 100 µM | TGI (SNB-75 CNS): > 100 µM | TGI (OVCAR-8 ovarian): > 100 µM | TGI (DLD-1 colon): > 100 µM | TGI (OVCAR-3 ovarian): > 100 µM | TGI (K-562 leukemia): > 100 µM | TGI (CCRF-CEM leukemia): > 100 µM | TGI (SNB-19 CNS): > 100 µM | TGI (LOX IMVI melanoma): > 100 µM | TGI (HOP-92 NSCLC): > 100 µM | TGI (SR leukemia): > 100 µM | TGI (RXF 393 renal): > 100 µM | TGI (IGROV1 ovarian): > 100 µM | TGI (SW-620 colon): > 100 µM

COc1ccc(OC)c(NC(=O)C2=C(C)NC(C)=C(C(=O)Nc3cc(OC)ccc3OC)C2c2ccco2)c1
TGI (DMS 273 small cell lung): > 100 µM | TGI (MOLT-4 leukemia): > 100 µM | TGI (HOP-62 NSCLC): > 100 µM | TGI (KM12 colon): > 100 µM | TGI (OVCAR-5 ovarian): > 100 µM | TGI (786-0 renal): > 100 µM | TGI (NCI-H460 lung): > 100 µM | TGI (UO-31 renal): > 100 µM | TGI (SK-MEL-2 melanoma): > 100 µM | TGI (HCT-116 colon): > 100 µM | TGI (MALME-3M melanoma): > 100 µM | TGI (NCI-H23 lung): > 100 µM | TGI (RPMI-8226 leukemia): > 100 µM | TGI (SK-OV-3 ovarian): > 100 µM | TGI (ACHN renal): > 100 µM | TGI (HT29 colon): > 100 µM | TGI (SK-MEL-5 melanoma): > 100 µM | TGI (COLO 205 colon): > 100 µM | TGI (M19-MEL melanoma): > 100 µM | TGI (A498 renal): > 100 µM | TGI (XF 498 CNS): > 100 µM | TGI (U251 CNS): > 100 µM | TGI (SF-539 CNS): > 100 µM | TGI (CAKI-1 renal): > 100 µM | TGI (A549 NSCLC): > 100 µM | TGI (TK-10 renal): > 100 µM | TGI (UACC-62 melanoma): > 100 µM | TGI (NCI-H522 lung): > 100 µM | TGI (SF-268 CNS): > 100 µM | TGI (KM20L2 colon): > 100 µM | TGI (SN12C renal): > 100 µM | TGI (SNB-78 CNS): > 100 µM | TGI (LXFL 529 NSCLC): > 100 µM | TGI (M14 melanoma): > 100 µM | TGI (NCI-H226 lung): > 100 µM | TGI (DMS 114 small cell lung): > 100 µM | TGI (EKVX NSCLC): > 100 µM | TGI (HCT-15 colon): > 100 µM | TGI (SNB-75 CNS): > 100 µM | TGI (OVCAR-8 ovarian): > 100 µM | TGI (DLD-1 colon): > 100 µM | TGI (OVCAR-3 ovarian): > 100 µM | TGI (K-562 leukemia): > 100 µM | TGI (CCRF-CEM leukemia): > 100 µM | TGI (SNB-19 CNS): > 100 µM | TGI (HOP-92 NSCLC): > 100 µM | TGI (SR leukemia): > 100 µM | TGI (IGROV1 ovarian): > 100 µM | TGI (SW-620 colon): > 100 µM
